Experimental data taken from patent publication US5843399A, “DTPA monoamides for MRI” (Schering Aktiengesellschaft, priority 1990, dated 1998).

Experiments:
human serum albumin = assay: Association with human serum albumin in aqueous solution; assay type: binding
liver = details: p.o., 0.5 mmol of Gd/kg
Procedure: In another animal (rat, strain Lew/mol, female, 200 g), the same contrast medium was administered orally with a p.o. sample in a dose of 0.5 mmol of Gd/kg (concentration of the solution 0.033 mmol of Gd/ml, in 0.9% NaCl). The animal was anesthetized 30 minutes after the administration and examined under the same conditions as described in the first case.

stomach = details: i.v., 0.1 mmol of Gd/kg, 60 minutes after administration (image no. 2)
Procedure: (§1) A cell suspension of the Brown-Pearce tumor was injected in the liver in a test animal (rat, strain lew/mol, female, 155 g) two weeks before the test. In the method used, about 2 weeks were required until the tumor had reached the size of 0.5-1 cm^3 desired for the test.
(§2) For the test, the animal was anesthetized (Rompun+Ketavet) and then a catheter was placed in the caudal vein for the administration of the contrast medium.
The imaging took place in an MRI experimental device of the General Electric company (field strength 2 teslas). The first image was made without contrast media with a T1 -weighted spin echo sequence (TR=400 msec, TE=20 msec, layer thickness 3 mm). […] Then, the administration of the contrast medium [gadolinium complex of 3,6-bis(carboxymethyl)-9-(10-carboxydecylcarbamoylmethyl)-3,6,9-triazaundecanedioic acid, Example 1b)] took place through the vein catheter with a dose of 0.1 mmol of Gd/kg (concentration of the solution of 0.05 mmol/ml in 0.9% NaCl, i.e. a clinically usual dose, e.g., in the case of the commercial preparation Magnevist®). […] 2 was taken 60 minutes after the administration of the contrast medium under conditions which were otherwise the same as image no.

[1] = tested on: liver / Brown-Pearce tumor; assay: In vivo NMR diagnosis, intravenous, liver with Brown-Pearce tumor; design: species or system rat; details: i.v., 0.1 mmol of Gd/kg, 60 minutes after administration
Procedure: as §1, §2
The imaging took place in an MRI experimental device of the General Electric company (field strength 2 teslas). The first image was made without contrast media with a T1 -weighted spin echo sequence (TR=400 msec, TE=20 msec, layer thickness 3 mm). […] 2 was taken 60 minutes after the administration of the contrast medium under conditions which were otherwise the same as image no.

Compound	association with human serum albumin (human serum albumin)	signal in the liver, 45 minutes (liver; 45 minutes after administration (image 3))	enhancement in the liver, 180 minutes (liver; 180 minutes after administration (image 4))	enhancement of the stomach (stomach)	concentration of the contrast medium in liver and tumor [1]	appearance of the liver parenchyma in MRI image ([1]; 2 teslas, T1-weighted spin echo)	appearance of the tumor in MRI image ([1]; Brown-Pearce tumor in liver)
CCCCCCC(CCCCCCCCCCC(=O)O)NC(=O)CN(CCN(CCN(CC(=O)O)CC(=O)O)CC(=O)O)CC(=O)O.[Gd] (stereo not shown) [Example 4b, Gadolinium complex of 3,6-bis(carboxymethyl)-9-(11-carboxy-1-n-hexyl-undecylcarbamoylmethyl)-3,6,9-triazaundecanedioic acid]	forms associates in aqueous solution with human serum albumin	–	–	–	–	–	–
O=C(O)CCCCCCCCCCNC(=O)CN(CCN(CCN(CC(=O)O)CC(=O)O)CC(=O)O)CC(=O)O.[Gd] [Example 1b, Gadolinium complex of 3,6-bis(carboxymethyl)-9-(10-carboxydecylcarbamoylmethyl)-3,6,9-triazaundecanedioic acid]	–	a slight increase in the signal in the liver	A marked enhancement in the liver	very strong enhancement of the stomach	concentrated in the liver to a great extent, but, not in the tumor	very bright	considerably darker in comparison with the surrounding liver tissue
